In patent US11312724B2 (ASCENTAGE PHARMA (SUZHOU) CO., LTD., priority 2021, dated 2022):

Assays:
[1] = tested on: MIA PaCa-2 cell; assay: Cell proliferation assay (Celltiter-Glo), MIA PaCa-2; format: cell-based; details: Homo sapiens, MIA PaCa-2, 72 h, 3 days
Protocol: (§1) Cell Proliferation Assay:
(§2) NCI-H358 cell and MIA PaCa-2 cell was cultured in RPMI-1640 supplemented with 10% FBS in humidified incubator at 37° C., 5% CO2. To asses the effect of Compounds of the Disclosure on cell proliferation, exponentially growing cells (5000 cells/well) were plated onto 96-well plates. After cell seeding, a representative Compounds of the Disclosure were added to the cell media (in concentrations ranging from 0 to 10 μM, 3/dilution series). After 3 days, 30 μL Celltiter-Glo reagent was added, and the luminescent signal was determined according to supplier's instruction. The dose response curves and IC50 values were generated using Prism.

[2] = tested on: NCI-H358 cell; assay: Cell proliferation assay (Celltiter-Glo), NCI-H358; format: cell-based; details: Homo sapiens, NCI-H358, 72 h, 3 days
Protocol: as §1, §2

IC50 [1] [nM]	IC50 [2] [nM]	Structure (SMILES)
810	660	C=C(F)C(=O)N1CCN(c2nc(OC[C@@H]3CCCN3C)nc3c2CCC2(COCc4cccc(F)c42)C3)C[C@@H]1CC#N (stereo partly shown)
3.6	16	C=CC(=O)N1CCN(c2nc(OC[C@@H]3CCCN3C)nc3c2CC[C@]2(CCCc4ccccc42)C3)C[C@@H]1CC#N (single isomer, unassigned) [Cpd. No. 1]
76	440	C=CC(=O)N1CCN(c2nc(OC[C@@H]3CCCN3C)nc3c2CC[C@@]2(CCCc4ccccc42)C3)C[C@@H]1CC#N (single isomer, unassigned) [Cpd. No. 2]
5	13	C=CC(=O)N1CCN(c2nc(OCC3CCCN3C)nc3c2CC[C@]2(CCc4ccccc42)C3)C[C@@H]1CC#N (single isomer, unassigned) [Cpd. No. 4]
400	520	C=CC(=O)N1CCN(c2nc(OCC3CCCN3C)nc3c2CC[C@@]2(CCc4ccccc42)C3)C[C@@H]1CC#N (single isomer, unassigned) [Cpd. No. 5]
4.9	15	C=CC(=O)N1CCN(c2nc(OC[C@@H]3[C@@H]4C[C@@H]4CN3C)nc3c2CC[C@@]2(CCc4c(Cl)cccc42)C3)C[C@@H]1CC#N (single isomer, unassigned) [Cpd. No. 47]
4.3	6	C=CC(=O)N1CCN(c2nc(OC[C@@H]3[C@H]4C[C@H]4CN3C)nc3c2CC[C@@]2(CCc4c(Cl)cccc42)C3)C[C@@H]1CC#N (single isomer, unassigned) [Cpd. No. 48]
140	290	C=CC(=O)N1CCN(c2nc(OC[C@@H]3CCCN3C)nc3c2CCC2(CCCc4ccccc42)C3)C[C@H]1CC#N (stereo partly drawn) [Cpd. No. 3, 2-((2R)-1-acryloyl-4-(2′-(((S)-1-methylpyrrolidin-2-yl)methoxy)-3,4,5′,8′-tetrahydro-2H,6′H-spiro[naphthalene-1,7′-quinazolin]-4′-yl)piperazin-2-yl)acetonitrile]
170	210	C=CC(=O)N1CCN(c2nc(OC[C@@H]3CCCN3C)nc3c2CCC2(C3)OCCc3ccccc32)C[C@@H]1CC#N (stereo partly drawn) [Cpd. No. 6, 2-((2S)-1-acryloyl-4-(2′-(((S)-1-methylpyrrolidin-2-yl)methoxy)-5′,8′-dihydro-6′H-spiro[isochromane-1,7′-quinazolin]-4′-yl)piperazin-2-yl)acetonitrile]
850	1390	C=CC(=O)N1CCN(c2nc(OC[C@@H]3CCCN3C)nc3c2CCC2(CCCc4ccccc42)C3)CC1 (stereo partly drawn) [Cpd. No. 7, 1-(4-(2′-(((S)-1-methylpyrrolidin-2-yl)methoxy)-3,4,5′,8′-tetrahydro-2H,6′H-spiro[naphthalene-1,7′-quinazolin]-4′-yl)piperazin-1-yl)prop-2-en-1-one]
500	940	C=CC(=O)N1CCN(c2nc(OC[C@@H]3CCCN3C)nc3c2CCC2(CCCc4ccccc42)C3)[C@@H](C)C1 (stereo partly drawn) [Cpd. No. 8, 1-((3S)-3-methyl-4-(2′-(((S)-1-methylpyrrolidin-2-yl)methoxy)-3,4,5′,8′-tetrahydro-2H,6′H-spiro[naphthalene-1,7′-quinazolin]-4′-yl)piperazin-1-yl)prop-2-en-1-one]
1730	3270	C=CC(=O)N1CCN(c2nc(OC[C@@H]3CCCN3C)nc3c2CCC2(CCc4ccccc42)C3)CC1 (stereo partly drawn) [Cpd. No. 9, 1-(4-(2′-(((S)-1-methylpyrrolidin-2-yl)methoxy)-2,3,5′,8′-tetrahydro-6′H-spiro[indene-1,7′-quinazolin]-4′-yl)piperazin-1-yl)prop-2-en-1-one]
1180	2230	C=CC(=O)N1CCN(c2nc(OC[C@@H]3CCCN3C)nc3c2CCC2(CCc4ccccc42)C3)[C@@H](C)C1 (stereo partly drawn) [Cpd. No. 10, 1-((3S)-3-methyl-4-(2′-(((S)-1-methylpyrrolidin-2-yl)methoxy)-2,3,5′,8′-tetrahydro-6′H-spiro[indene-1,7′-quinazolin]-4′-yl)piperazin-1-yl)prop-2-en-1-one]
110	200	C=CC(=O)N1CCN(c2nc(OC[C@@H]3CCCN3C)nc3c2CCC2(CCCc4ccc(F)cc42)C3)C[C@@H]1CC#N (stereo partly drawn) [Cpd. No. 11, 2-((2S)-1-acryloyl-4-(7-fluoro-2′-(((S)-1-methylpyrrolidin-2-yl)methoxy)-3,4,5′,8′-tetrahydro-2H,6′H-spiro[naphthalene-1,7′-quinazolin]-4′-yl)piperazin-2-yl)acetonitrile]
55	65	C=CC(=O)N1CCN(c2nc(OC[C@@H]3CCCN3C)nc3c2CCC2(CCc4ccc(C)cc42)C3)C[C@@H]1CC#N (stereo partly drawn) [Cpd. No. 12, 2-((2S)-1-acryloyl-4-(6-methyl-2′-(((S)-1-methylpyrrolidin-2-yl)methoxy)-2,3,5′,8′-tetrahydro-6′H-spiro[indene-1,7′-quinazolin]-4′-yl)piperazin-2-yl)acetonitrile]
220	290	C=C(F)C(=O)N1CCN(c2nc(OC[C@@H]3CCCN3C)nc3c2CCC2(CCCc4ccccc42)C3)C[C@@H]1CC#N (stereo partly drawn) [Cpd. No. 13, 2-((2S)-1-(2-fluoroacryloyl)-4-(2′-(((S)-1-methylpyrrolidin-2-yl)methoxy)-3,4,5′,8′-tetrahydro-2H,6′H-spiro[naphthalene-1,7′-quinazolin]-4′-yl)piperazin-2-yl)acetonitrile]
1670	1670	C/C=C/C(=O)N1CCN(c2nc(OC[C@@H]3CCCN3C)nc3c2CCC2(CCCc4ccccc42)C3)C[C@@H]1CC#N (stereo partly drawn) [Cpd. No. 14, 2-((2S)-1-((E)-but-2-enoyl)-4-(2′-(((S)-1-methylpyrrolidin-2-yl)methoxy)-3,4,5′,8′-tetrahydro-2H,6′H-spiro[naphthalene-1,7′-quinazolin]-4′-yl)piperazin-2-yl)acetonitrile]
290	510	CN(C)C/C=C/C(=O)N1CCN(c2nc(OC[C@@H]3CCCN3C)nc3c2CCC2(CCCc4ccccc42)C3)C[C@@H]1CC#N (stereo partly drawn) [Cpd. No. 15, 2-((2S)-1-((E)-4-(dimethylamino)but-2-enoyl)-4-(2′-(((S)-1-methylpyrrolidin-2-yl)methoxy)-3,4,5′,8′-tetrahydro-2H,6′H-spiro[naphthalene-1,7′-quinazolin]-4′-yl)piperazin-2-yl)acetonitrile]
2960	1900	C=CS(=O)(=O)N1CCN(c2nc(OC[C@@H]3CCCN3C)nc3c2CCC2(CCCc4ccccc42)C3)C[C@@H]1CC#N (stereo partly drawn) [Cpd. No. 16, 2-((2S)-4-(2′-(((S)-1-methylpyrrolidin-2-yl)methoxy)-3,4,5′,8′-tetrahydro-2H,6′H-spiro[naphthalene-1,7′-quinazolin]-4′-yl)-1-(vinylsulfonyl)piperazin-2-yl)acetonitrile]
54	100	C=CC(=O)N1CCN(c2nc(OCCCN(C)C)nc3c2CCC2(CCCc4ccccc42)C3)C[C@@H]1CC#N (stereo partly drawn) [Cpd. No. 17, 2-((2S)-1-acryloyl-4-(2′-(3-(dimethylamino)propoxy)-3,4,5′,8′-tetrahydro-2H,6′H-spiro[naphthalene-1,7′-quinazolin]-4′-yl)piperazin-2-yl)acetonitrile]
